# According to patent US11066378B2, “Caffeic acid derivatives for anti-angiogenesis” (Taipei Medical University, priority 2015, dated 2021):
# Legend:
# VEGFR-2 = VEGFR-2 expression in HUVECs (immunoblot); type: cell-based, human; conditions: FIG. 6A
# Method: (§1) The experiments were carried out as described previously (Pan et al., 2010). Briefly, the cells (5×10^5 cells/well) seeded on the 6-well plates and incubated with different concentrations (0.5, 1, and 2 μM) of K20E under normal culture condition for 15 min or 24 h to detect the expression levels of the phosphorylated proteins and the total proteins, respectively. The treated cells were harvested and lysed by using PROPREP® protein extraction solution (#17081; iNtRON Biotechnology, Gyeonggi-Do, South Korea). The cell lysates were further centrifuged at 13000×g at 4° C. for 10 min to collect the supernatants for sodium dodecyl sulfate-polyacrylamide gel electrophoresis (SDS-PAGE). Protein concentration was measured by the Bio-Rad protein assay kit (Bio-Rad, Hercules, Calif., USA) according to the manufacturer's instructions. Aliquots containing 30 μg protein were electrophoresed using 10% slab SDS-PAGE gels and then transferred to PVDF membranes (Immobilon-P™; Millipore, Bedford, Mass., USA). […] The luminescence signal was acquired by Fujifilm LAS-4000 system (San Leandro, Calif., USA) and quantified by using MultiGauge software (v3.0; Fujifilm). […] The relative protein expression was calculated according to the values of the control group (treated with 5% or 10% FBS alone) as 100%.
# VEGF = VEGF level in LLC1 cells (immunoblot) and culture medium (ELISA); type: cell-based, mouse; conditions: 24 h, FIG. 5
# Method: as §1, with “100%. […]” for “100%.”
# HUVECs = assay: Cell viability assay (MTT assay), growth inhibition of HUVECs; type: cell-based, human
# Method: Human umbilical vein endothelial cells (HUVECs; #8000) were purchased from the ScienCell Research Laboratories (San Diego, Calif., USA). The cells were seeded on gelatin-coated culture dishes and grown in the commercial endothelial cell medium (#1001; ScienCell) containing 5% fetal bovine serum (FBS; #0025; ScienCell), 30 μg/mL endothelial cell growth supplements (ECGS; #1052; ScienCell), 100 units/mL penicillin G, and 100 μg/mL streptomycin sulfates (#0503; ScienCell). Cells at passage 3-6 were used for experiments. Mouse Lewis lung carcinoma cell line 1 (LLC1; #60050) was bought from the Food Industry Research and Development Institute (Hsinchu, Taiwan) and cultured in Gibco® Dulbecco's modified Eagle's medium (#12800-017; Invitrogen, Carlsbad, Calif., USA) supplemented with 10% FBS (HyClone, Logan, Utah, USA), 4 mM L-glutamine, 1.5 g/L sodium bicarbonate, 100 units/mL penicillin G, and 100 μg/mL streptomycin. All cells were incubated in a humidified 5% CO2 atmosphere at 37° C. and culture media was changed every 2˜3 days.
# The experiments were performed according to our previous study with minor modifications (Pan et al., 2010). Briefly, the cells (2×10^4 cells/well) were seeded and grown under normal culture medium for 24 h. After another 24 h of starvation with 0.5% FBS, the cells were treated with several concentrations (1, 2, 4, 8, and 16 μM) of the tested compounds for 24 h and then incubated with 5 mg/mL of MTT (3-[4,5-dimethyl thiazol-2-yl]-2,5-diphenyl tetrazolium bromide) for 2 h. After that, the cells were washed with 1×PBS and then dimethyl sulfoxide (DMSO) was added to each well. Absorbance values at 570 nm were determined for each well using 650 nm as the reference wavelength. The absorbance of the control group (treated with 5% or 10% FBS alone) was defined as 100%.
# [1] = tested on: MEK1/2-ERK1/2 and AKT-mTOR signaling pathway; assay: VEGFR-2 downstream signaling cascades in HUVECs (immunoblot); type: cell-based, human; conditions: activation level rather than total protein level
# Method: as §1
# p53-p21 pathway = assay: p53 and p21 protein levels in HUVECs (immunoblot); type: cell-based, human; conditions: FIG. 7
# Method: as §1
# [2] = tested on: gelatinases (MMP-2 and MMP-9); assay: Gelatinase protein (immunoblot) and activity (gelatin zymography) in HUVECs; type: cell-based, human; conditions: FIG. 6D
# Method: as §1, with “instructions.” for “instructions. Aliquots containing 30 μg protein were electrophoresed using 10% slab SDS-PAGE gels and then transferred to PVDF membranes (Immobilon-P™; Millipore, Bedford, Mass., USA).”
# The experiments were carried out according to the procedure of previous study with minor modification (Chen et al., 2012). […] The intensity of the digested bands was quantified by using Multi Gauge software. […]
compound,measurement,setting,value
COC(=O)/C=C/c1cc(OC(C)=O)c2c(c1)[C@H](C(=O)OC)[C@@H](c1ccc(OC(C)=O)c(OC(C)=O)c1)O2 [K20E],expression level of intracellular and surface VEGFR-2,VEGFR-2,markedly down-regulated
same,intracellular level of VEGF protein,"VEGF; LLC1 cancer cells, immunoblot",dose-dependently decrease
same,secreted level of VEGF protein,"VEGF; LLC1 culture medium, ELISA",dose-dependently decrease
same,GI50,"HUVECs; Homo sapiens, HUVEC, 24 h, MTT assay, 24 h treatment, 5% FBS-stimulated HUVECs",~7.5 µM
same,5% FBS-stimulated cell growth of the HUVECs,"HUVECs; dose-dependent, FIG. 2A",markedly reduced
same,MEK1/2-ERK1/2 signaling,[1]; FIG. 6B,suppressed
same,AKT-mTOR signaling pathway,[1]; FIG. 6C,suppressed
same,expression level of p21 protein,p53-p21 pathway,dose-dependently increased
same,expression level of p53 protein,p53-p21 pathway,dose-dependently increased
same,activity levels of gelatinases (MMP-2 and MMP-9),[2]; gelatin zymography,evidently decreased
same,protein levels of gelatinases (MMP-2 and MMP-9),[2]; immunoblot,evidently decreased
